# Results reported in paper PMC4920673, “Nitroimidazole carboxamides as antiparasitic agents targeting Giardia lamblia, Entamoeba histolytica and Trichomonas vaginalis” (European Journal of Medicinal Chemistry, 2016).
# Read-outs that look alike come from different tables or passages of the source.
# Columns and labels:
# [1] = Resazurin cytotoxicity assay, HepG2; format: cell-based, Human; details: human, 24 h, highest concentration 100 μM, n = 3, read-out: CC50 Hep G2
# Protocol: (§1) Human HEK293 and HepG2 cells were seeded at 3000 and 5000 cells per well in 384-well plates, respectively. Cells were cultured in Dulbecco's modified Eagle's medium with 10% FBS for 24 h at 37 °C, 5% CO2. A dilution series of compounds was added, with the highest concentration of 100 μM. […] After 24 h incubation with the compounds, 5 μM resazurin was added into each well and incubated at 37 °C for 2 h. As a negative control, 1% Triton X-100 was added into the culture media to lyse all of the cells. The fluorescence intensity was read using Polarstar Omega with excitation/emission 560/590 nm. Data were analysed with GraphPad Prism 6 software (La Jolla, California USA) to calculate CC50 values.
# [2] = test system: C. difficile 630 (ATCC BAA-1382); assay: Broth microdilution MIC assay, C. difficile 630; format: cell-based, Clostridium difficile; details: Clostridioides difficile, ATCCBAA1382; strain 630, MtzS; median of n = 4; read-out: MIC C. difficile 630
# Protocol: Clostridium difficile strains (630, ATCC BAA-1382 and NAP1/027, ATCC BAA-1803) were maintained as previously described. The minimum inhibition concentration (MIC) was determined according to the CLSI Methods with modifications in broth and inoculum for C. difficile, [25], [26]. Briefly, compounds and control antibiotics were serially diluted two-fold in 96-well plates (Non-binding surface, Corning). […] C. difficile bacteria from BHIS(TA) agar plates were cultured anaerobically in BHIS at 37 °C overnight. […] An antibiotic standard, a positive growth control (no compound) and a sterility control (no bacteria) were included on each 96 well plate. Plates were covered and incubated at 37 °C for 24 h. MICs for each strain were determined as the lowest concentration without visible growth. […] Median MICs are reported with a range given when the median MIC was between two tested concentrations.
# [3] = test system: E. histolytica HM1:IMSS; assay: ATP-bioluminescence growth/survival EC50 assay, E. histolytica; format: cell-based, Entamoeba histolytica; details: Entamoeba histolytica
# Protocol: (§2) Compounds were screened for antiparasitic activity using an ATP-bioluminescence based assay for cell growth and survival, [24]. […] Viable cell numbers were determined in triplicate using the CellTiter-Glo Luminescent Cell Viability Assay.
# [4] = test system: G. lamblia WB (MtzS); assay: ATP-bioluminescence growth/survival EC50 assay, G. lamblia WB; details: for EC50: Giardia duodenalis; for S.I (CC50/EC50): average cytotoxicity against HEK293 and HepG2 / G. lamblia WB activity
# Protocol: as §2
# [5] = test system: C. difficile NAP1/027 (ATCC BAA-1803); assay: Broth microdilution MIC assay, C. difficile NAP1/027; format: cell-based, Clostridium difficile; details: Clostridioides difficile, ATCCBAA1803; strain NAP1/027
# Protocol: Clostridium difficile strains (630, ATCC BAA-1382 and NAP1/027, ATCC BAA-1803) were maintained as previously described. The minimum inhibition concentration (MIC) was determined according to the CLSI Methods with modifications in broth and inoculum for C. difficile, [25], [26]. Briefly, compounds and control antibiotics were serially diluted two-fold in 96-well plates (Non-binding surface, Corning). The plates were placed in a Coy anaerobic chamber (5% H2, 10% CO2, 85% N2) overnight to reduce the medium. C. difficile bacteria from BHIS(TA) agar plates were cultured anaerobically in BHIS at 37 °C overnight. […]. Compound concentration ranged from 64 to 0.03 μg/mL. An antibiotic standard, a positive growth control (no compound) and a sterility control (no bacteria) were included on each 96 well plate. Plates were covered and incubated at 37 °C for 24 h. MICs for each strain were determined as the lowest concentration without visible growth. Variance between replicates was typically within one 2-fold dilution. Median MICs are reported with a range given when the median MIC was between two tested concentrations.
# [6] = Resazurin cytotoxicity assay, HEK293; format: cell-based, Human; details: human, 24 h, highest concentration 100 μM, n = 3, read-out: CC50 HEK 293
# Protocol: as §1
# [7] = test system: T. vaginalis F1623; assay: ATP-bioluminescence growth/survival EC50 assay, T. vaginalis; format: cell-based, Trichomonas vaginalis; details: Trichomonas vaginalis, read-out: EC50 T. vaginalis F1623, MtzS; minimum n = 3
# Protocol: as §2
# [8] = read-out: EC50 E. histolytica HM1:IMSS
# [9] = read-out: pEC50 ± SE E. histolytica HM1:IMSS (converted)
# [10] = read-out: EC50 G. lamblia WB, MtzS strain WB, minimum n = 3
# [11] = read-out: pEC50 ± SE G. lamblia WB, MtzS strain WB (converted)
Compound,CC50 at 24 h ([1]; HepG2 cells),MIC [2],"EC50 [3, 8]","EC50 [3, 9]","EC50 [4, 10]","EC50 [4, 11]",MIC [5],CC50 at 24 h ([6]; HEK293 cells),S.I (CC50/EC50) [4],CC50 at 24 h [1],CC50 at 24 h [6],EC50 [7]
"Cc1ccc(CCn2cc([N+](=O)[O-])nc2C(N)=O)cc1 [Compound 13d, 1-(4-methylphenethyl)-4-nitro-1H-imidazole-2-carboxamide]",> 100 µM,> 64 µg/mL,> 50 µM,> 50.1 µM,> 50 µM,> 50.1 µM,> 64 µg/mL,> 100 µM,–,–,–,–
"NC(=O)c1nc([N+](=O)[O-])cn1Cc1ccccn1 [Compound 13e, 4-nitro-1-(pyridin-2-ylmethyl)-1H-imidazole-2-carboxamide]",> 100 µM,> 64 µg/mL,> 50 µM,> 50.1 µM,27 µM,26.9 µM,> 64 µg/mL,> 100 µM,>3.7,–,–,–
"CNC(=O)c1nc([N+](=O)[O-])cn1Cc1ccc(OC(F)(F)F)cc1 [Compound 14a, N-methyl-4-nitro-1-(4-(trifluoromethoxy)benzyl)-1H-imidazole-2-carboxamide]",–,–,30 µM,30.2 µM,3.4 µM,3.39 µM,> 64 µg/mL,–,>29,> 100 µM,> 100 µM,–
"CN(C)C(=O)c1nc([N+](=O)[O-])cn1Cc1ccc(OC(F)(F)F)cc1 [Compound 14b, N,N-dimethyl-4-nitro-1-(4-(trifluoromethoxy)benzyl)-1H-imidazole-2-carboxamide]",–,64 µg/mL,19 µM,19.1 µM,2.7 µM,2.69 µM,64 µg/mL,–,>37,> 100 µM,> 100 µM,–
"NNC(=O)c1nc([N+](=O)[O-])cn1Cc1ccc(OC(F)(F)F)cc1 [Compound 14e, 4-nitro-1-(4-(trifluoromethoxy)benzyl)-1H-imidazole-2-carbohydrazide]",–,> 64 µg/mL,45 µM,44.7 µM,7.5 µM,7.59 µM,> 64 µg/mL,–,>13,> 100 µM,> 100 µM,–
"O=C(NCc1ccc(F)cc1)c1ncc[nH]1 [Compound 17, N-(4-fluorobenzyl)-1H-imidazole-2-carboxamide]",–,> 64 µg/mL,> 50 µM,–,> 50 µM,–,–,–,–,–,–,> 20 µM
"NC(=O)c1nccn1Cc1ccc(OC(F)(F)F)cc1 [Compound 18, 1-(4-(trifluoromethoxy)benzyl)-1H-imidazole-2-carboxamide]",–,> 64 µg/mL,> 50 µM,–,> 50 µM,–,–,–,–,–,–,–
"Nc1c[nH]c(C(=O)NCc2ccc(F)cc2)n1 [Compound 20, 4-amino-N-(4-fluorobenzyl)-1H-imidazole-2-carboxamide]",–,> 64 µg/mL,> 50 µM,–,> 50 µM,–,–,–,–,–,–,> 20 µM
